Data as given in patent publication US7799346B2, “Method of treatment directed to agent retention in biological tissues” (Advanced Cardiovascular Systems, Inc., priority 1999, dated 2010).

Tests used:
[1] = cited from earlier work; for pKa NH3: aminium group NH3+; for pKa CO2H: carboxyl group
[2] = In-vitro agent retention in perfused excised vessel, fluorescent intensity of tissue sections; assay type: in vitro ADME, porcine
Description: The target tissue is a live excised porcine carotid. The tissue sample is perfused with buffered saline of Kerbs-henseleit Buffer (Sigma Catalog #K3753) at physiological temperature and pressure. Thereafter, the excised vessels are received in buffered saline solution. The artery segments are sutured to tubing using plastic nipple adapters and loaded into a perfusion chamber. The segments are stretched to their original lengths. In the perfusion chamber, the vessels are allowed to equilibrate for 10 minutes at 37° C. the hydrostatic pressure head above the chamber is about 100 cm.
A microporous balloon catheter is inserted through the rotating hemostatic valve (RHV) and secured. The agent used is […]. The agent is delivered through the catheter at 3.5 atm pressure for 2 minutes in both control and test samples. The amount of agent delivered is about 3 ml. Immediately following agent introduction, a barrier of Poly(amine) Barrier is delivered through the catheter in only the test samples for about 2 minutes. The total amount of barrier introduced is about 3 ml.
The test and control vessels are flushed with the buffer solution for about 15 minutes. The proximal and distal positions of the vessels are marked and the vessels are removed from the perfusion chamber and placed into a bath containing liquid nitrogen. The vessels are mounted in paraffin and sliced in 10 micron thin sections at the proximal, mid and distal portions.
The slides are observed using a fluorescent microscope. The fluorescent intensities of the sections are recorded, where fluorescence represents the presence of agent in the tissue. The resulting intensities over the length of the tissue sections are represented in the graphs in FIG. 5A showing the proximal section and FIG. 5B showing the mid section. […] The average intensity of agent in the test sample is about 1083, whereas the control intensity is about 749. Thus, a 44% increase in agent occurs with the use of the barrier. […]

Row | Compound | pKa NH3 [1] | pKa CO2H [1] | fluorescent intensity of agent in tissue section, Distal [2] | fluorescent intensity of agent in tissue section, Mid [2] | fluorescent intensity of agent in tissue section, Proximal [2]
1 | O=C(O)[C@@H]1C[C@@H](O)CN1 [Hydroxyproline] | 9.7 | 1.9 | – | – | –
2 | N[C@@H](CSSC[C@H](N)C(=O)O)C(=O)O [Cystine] | 7.9 | 1.6 | – | – | –
3 | cascade blue | – | – | 747 | 831 | 669
4 | CSCC[C@H](N)C(=O)O [Methionine] | 9.9 | – | – | – | –
